Consider two molecules from patent publication US12661415B2, “Isoindolinone compounds and imaging agents for imaging Huntingtin protein” (CHDI Foundation, Inc., priority 2021, dated 2026).

Assay [1] concerns mHTT aggregates. Briefly: In situ autoradiography (ARG) binding, human post-mortem brain sections. As to conditions: for specific HD binding at 0.3 nM radioligand: human HD brain sections. The text has this:
In situ autoradiography (ARG) was used to investigate the pharmacological binding characteristics of a tritium-labeled Compound 1-6 (“[^3H]-Compound 1-6”) in the HD mouse model 12-month-old HOM zQ175 and human post-mortem brains from healthy and HD gene-expanded carriers (HDGECs); specificity of binding was explored by including samples from Alzheimer's disease (AD) patients, which contain other pathological aggregates (e.g., Abeta-containing plaques and phosphor-Tau-expressing tangles). Saturation binding experiments were performed in coronal brain sections; [^3H]-Compound 1-6 binding was quantified by densitometric analysis and specific binding was determined in cortex (CTX). Affinity (KD) and maximum number of binding sites (Bmax) were determined for each region of interest (ROI).
The non-fixed and non-embedded frozen brains were sectioned by using a cryostat at −18° C. Thereby, serial coronal tissue sections of 20 μm thickness were mounted on superfrost slides and dried at room temperature for approximately 90 minutes. The slides were stored at −80° C. until the different experiments were conducted, but not longer than 3 weeks. A similar procedure was conducted with fresh-frozen human post-mortem brain blocks (healthy subjects {CTRL}, Huntingon's disease {HD}, and Alzheimer's disease {AD}).
The appropriate number of slides containing the respective tissue sections were acclimated to room temperature for 30 minutes. The slides were then pre-incubated by immersion into 40 mL assay buffer for 20 minutes at room temperature. Following this pre-incubation step, one slide per animal was incubated by immersion into 30 mL of the 10 nM, 3 nM, 1 nM, 0.3 nM, 0.1 nM, 0.03 nM, 0.01 nM, or 0.003 nM Compound 1-6 solutions and one slide was incubated by immersion into 30 mL of 10 nM, 3 nM, 1 nM, 0.3 nM, 0.1 nM, 0.03 nM, 0.01 nM, or 0.003 nM [^3H]-Compound 1-6, plus 10 μM unlabeled Compound 1-6 solutions for 60 minutes at room temperature, respectively. A similar paradigm was performed with tritium-labeled Comparative Compound 3 (“[^3H]-Comparative Compound 3”) and tritium-labeled Comparative Compound 4 (“[^3H]-Comparative Compound 4”). Structures of these comparative compounds and compound 1-6 are shown below.
Afterwards, the slides were washed three times for 10 minutes with 200 mL of ice cold washing buffer at 4° C. and dipped for three seconds in ice cold distilled water to remove buffer salts. The slides were dried for three hours at 30° C. and exposed for 96 hours to Fuji BAS-TR 2015 tritium phosphor screens together with the calibrated tritium standards ART 0123C and ART 0123B. Stored radiation energy on the screen was scanned using the phosphorimager Typhoon FLA 7000.
Densitometric data analysis was performed using the MCID Analysis 7.1 software (Interfocus Imaging Ltd.). Within each brain section, regions of interest (ROI) were defined for STR, CTX, and HPC by using appropriate sample tools, and the software calculated density measures from the gray level values of all pixels within a defined ROI (Molecular dynamics counts per unit area, MDC/mm^2). Densitometric calibration related the optical densities to known concentrations of radioactivity from the calibrated tritium standards (fmol/mg tissue) and mean values were calculated for each ROI of the individual brains. Total binding (TB) and non-specific binding (NSB) of the radioligand were quantified, and specific binding (SB) was derived by subtracting NSB from TB (SB=TB−NSB) for each brain and ROI, respectively. Subsequently, the group mean±standard deviation (SD) was calculated for each ROI and experimental condition. The data were fitted to one-site binding equation using non-linear regression method in GraphPad Prism Software.

In assay [2] the target is mHTT aggregates (Mus musculus, UniProt P42859). The assay can be described thus: In situ autoradiography (ARG) saturation binding, HOM zQ175 HD mouse model brain sections. As to conditions: for Bmax: 12-month-old HOM zQ175, tritium-labeled radioligand. The source says: In situ autoradiography (ARG) was used to investigate the pharmacological binding characteristics of a tritium-labeled Compound 1-6 (“[^3H]-Compound 1-6”) in the HD mouse model 12-month-old HOM zQ175 and human post-mortem brains from healthy and HD gene-expanded carriers ([…]); specificity of binding was explored by including samples from Alzheimer's disease (AD) patients, which contain other pathological aggregates (e.g., Abeta-containing plaques and phosphor-Tau-expressing tangles). Saturation binding experiments were performed in coronal brain sections; [^3H]-Compound 1-6 binding was quantified by densitometric analysis and specific binding was determined in cortex (CTX). Affinity (KD) and maximum number of binding sites (Bmax) were determined for each region of interest (ROI). At the appropriate ages, HD and WT mice of the different strains were sacrificed by cervical dislocation, and the brains, including cerebellum, were dissected and washed in ice cold PBS. Subsequently, the brains were patted dry on paper towels and transferred into a 6-well plate filled with isopentane that was cooled to a temperature between -30° C. and -40° C. The frozen brains were stored at -80° C. until sectioning. The non-fixed and non-embedded frozen brains were sectioned by using a cryostat at -18° C. Thereby, serial coronal tissue sections of 20 μm thickness were mounted on superfrost slides and dried at room temperature for approximately 90 minutes. The slides were stored at -80° C. until the different experiments were conducted, but not longer than 3 weeks. A similar procedure was conducted with fresh-frozen human post-mortem brain blocks (healthy subjects {CTRL}, Huntingon's disease {HD}, and Alzheimer's disease {AD}). The appropriate number of slides containing the respective tissue sections were acclimated to room temperature for 30 minutes. The slides were then pre-incubated by immersion into 40 mL assay buffer for 20 minutes at room temperature. […] Within each brain section, regions of interest (ROI) were defined for STR, CTX, and HPC by using appropriate sample tools, and the software calculated density measures from the gray level values of all pixels within a defined ROI (Molecular dynamics counts per unit area, MDC/mm^2). Densitometric calibration related the optical densities to known concentrations of radioactivity from the calibrated tritium standards (fmol/mg tissue) and mean values were calculated for each ROI of the individual brains. Total binding (TB) and non-specific binding (NSB) of the radioligand were quantified, and specific binding (SB) was derived by subtracting NSB from TB (SB=TB-NSB) for each brain and ROI, respectively. Subsequently, the group mean±standard deviation (SD) was calculated for each ROI and experimental condition. […]
mHTT aggregates (Mus musculus, UniProt P42859), sequence (P42859 whole entry): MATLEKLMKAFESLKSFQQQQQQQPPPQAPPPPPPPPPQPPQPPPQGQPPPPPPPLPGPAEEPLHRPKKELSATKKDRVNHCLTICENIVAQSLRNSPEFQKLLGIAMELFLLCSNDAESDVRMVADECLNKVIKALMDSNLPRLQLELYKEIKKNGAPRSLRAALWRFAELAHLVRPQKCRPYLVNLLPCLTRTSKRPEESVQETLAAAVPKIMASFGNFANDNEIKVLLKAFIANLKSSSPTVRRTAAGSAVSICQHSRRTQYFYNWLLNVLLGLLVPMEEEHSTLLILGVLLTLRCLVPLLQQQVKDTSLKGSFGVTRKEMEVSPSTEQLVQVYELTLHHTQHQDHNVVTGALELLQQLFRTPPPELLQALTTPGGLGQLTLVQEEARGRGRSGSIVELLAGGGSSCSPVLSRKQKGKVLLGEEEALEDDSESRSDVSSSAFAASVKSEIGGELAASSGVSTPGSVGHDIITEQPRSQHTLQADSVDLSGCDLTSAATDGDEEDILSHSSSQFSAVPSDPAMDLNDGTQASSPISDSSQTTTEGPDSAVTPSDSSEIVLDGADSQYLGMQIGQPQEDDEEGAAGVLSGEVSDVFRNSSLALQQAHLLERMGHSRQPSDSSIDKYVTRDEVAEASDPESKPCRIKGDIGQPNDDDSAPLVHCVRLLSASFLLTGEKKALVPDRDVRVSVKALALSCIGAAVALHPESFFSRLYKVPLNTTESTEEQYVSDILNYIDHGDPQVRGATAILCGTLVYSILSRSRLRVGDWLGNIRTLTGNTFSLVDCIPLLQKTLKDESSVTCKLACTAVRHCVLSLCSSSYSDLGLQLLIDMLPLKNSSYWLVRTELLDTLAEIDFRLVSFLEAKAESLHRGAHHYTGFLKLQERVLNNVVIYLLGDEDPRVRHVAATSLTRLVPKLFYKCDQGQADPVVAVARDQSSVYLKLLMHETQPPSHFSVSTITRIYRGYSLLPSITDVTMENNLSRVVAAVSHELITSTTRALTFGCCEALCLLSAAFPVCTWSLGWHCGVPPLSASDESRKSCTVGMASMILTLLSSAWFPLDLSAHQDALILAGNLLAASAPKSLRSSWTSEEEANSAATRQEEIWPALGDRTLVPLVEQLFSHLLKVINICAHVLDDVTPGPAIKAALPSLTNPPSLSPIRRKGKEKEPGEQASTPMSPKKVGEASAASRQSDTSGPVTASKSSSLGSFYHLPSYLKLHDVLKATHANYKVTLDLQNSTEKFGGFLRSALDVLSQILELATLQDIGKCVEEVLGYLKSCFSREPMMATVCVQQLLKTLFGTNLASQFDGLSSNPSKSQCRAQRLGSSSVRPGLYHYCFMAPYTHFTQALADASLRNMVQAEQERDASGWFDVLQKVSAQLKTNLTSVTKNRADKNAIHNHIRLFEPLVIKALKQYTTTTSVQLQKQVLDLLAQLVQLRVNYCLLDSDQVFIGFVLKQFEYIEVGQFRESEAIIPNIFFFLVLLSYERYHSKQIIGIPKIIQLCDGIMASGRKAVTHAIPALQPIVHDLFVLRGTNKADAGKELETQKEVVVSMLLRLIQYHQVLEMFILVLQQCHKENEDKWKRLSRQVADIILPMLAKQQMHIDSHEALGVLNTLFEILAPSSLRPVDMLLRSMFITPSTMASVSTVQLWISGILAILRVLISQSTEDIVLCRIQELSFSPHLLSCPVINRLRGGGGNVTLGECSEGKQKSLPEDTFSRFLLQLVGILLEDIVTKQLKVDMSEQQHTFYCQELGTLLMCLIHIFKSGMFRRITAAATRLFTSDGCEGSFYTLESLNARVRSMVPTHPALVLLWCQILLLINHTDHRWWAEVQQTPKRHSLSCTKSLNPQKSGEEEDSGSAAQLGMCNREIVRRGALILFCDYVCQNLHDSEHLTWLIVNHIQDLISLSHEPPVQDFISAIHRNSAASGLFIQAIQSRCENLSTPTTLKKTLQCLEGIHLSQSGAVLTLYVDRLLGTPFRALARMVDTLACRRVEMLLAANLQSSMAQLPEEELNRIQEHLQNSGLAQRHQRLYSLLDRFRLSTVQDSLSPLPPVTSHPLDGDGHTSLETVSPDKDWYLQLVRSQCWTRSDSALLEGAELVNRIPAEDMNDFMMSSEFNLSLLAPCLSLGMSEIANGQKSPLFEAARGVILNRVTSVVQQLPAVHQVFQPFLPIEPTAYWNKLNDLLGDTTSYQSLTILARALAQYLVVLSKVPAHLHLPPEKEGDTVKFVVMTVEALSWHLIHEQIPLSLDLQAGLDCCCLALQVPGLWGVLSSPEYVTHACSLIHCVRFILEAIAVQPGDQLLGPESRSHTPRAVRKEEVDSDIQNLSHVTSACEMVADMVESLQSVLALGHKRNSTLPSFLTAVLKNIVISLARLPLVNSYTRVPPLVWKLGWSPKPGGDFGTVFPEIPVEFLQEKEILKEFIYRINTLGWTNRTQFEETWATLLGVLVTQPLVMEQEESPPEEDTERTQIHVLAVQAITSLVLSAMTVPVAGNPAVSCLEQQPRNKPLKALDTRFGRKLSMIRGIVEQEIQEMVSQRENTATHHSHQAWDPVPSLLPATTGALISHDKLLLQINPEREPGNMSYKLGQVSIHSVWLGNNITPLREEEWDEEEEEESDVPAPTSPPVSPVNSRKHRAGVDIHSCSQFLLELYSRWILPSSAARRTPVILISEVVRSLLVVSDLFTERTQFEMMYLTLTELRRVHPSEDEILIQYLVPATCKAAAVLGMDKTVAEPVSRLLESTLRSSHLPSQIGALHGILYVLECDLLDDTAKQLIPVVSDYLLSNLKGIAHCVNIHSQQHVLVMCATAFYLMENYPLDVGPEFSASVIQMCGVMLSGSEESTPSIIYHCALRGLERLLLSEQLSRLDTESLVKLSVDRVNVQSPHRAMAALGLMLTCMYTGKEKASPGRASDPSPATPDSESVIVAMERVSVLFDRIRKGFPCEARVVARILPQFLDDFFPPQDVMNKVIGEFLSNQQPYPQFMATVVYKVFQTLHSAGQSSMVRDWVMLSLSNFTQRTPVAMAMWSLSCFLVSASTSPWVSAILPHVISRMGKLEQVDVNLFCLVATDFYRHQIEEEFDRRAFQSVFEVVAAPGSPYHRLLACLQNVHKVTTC

Entries after “also recorded” stand apart in the source; their conditions may differ.

Regarding `COc1ccc(NC(=O)c2ccn3c(n2)nc2ccccc23)cn1` [[^3H]-Comparative Compound 3, reference compound], the “specific HD binding at 0.3 nM radioligand” value in assay [1] is “no HD binding was detectable; also recorded: failed to reveal HD binding”. This molecule also displayed a Bmax in assay [2] (cortex) of 169 fmol/mg.

On to `COc1ccc(COc2ccc3c(c2)CN(c2ccc(=O)n(C)n2)C3=O)nc1` [[^3H]-Compound 1-6], for which, in assay [1] (cortex brain sections from AD patients), the “specific binding, AD patients” value was found to be 0.1±0.0 fmol/mg tissue. Moreover, the “specific binding, HD donors” value in assay [1] (frontal cortical sections from HD donors) was determined as 0.8±0.2 fmol/mg tissue. In addition, in assay [1] (frontal cortical sections, healthy subjects (CTRL)), the “specific binding, CTRL tissue” value is reported as 0.0±0.0 fmol/mg tissue. In assay [1], the “specific HD binding at 0.3 nM radioligand” value is “significant specific HD binding was detectable; also recorded: binds selectively to human HD brain sections”. For the same molecule, in assay [1] (human post-mortem brain sections), the “binding to healthy control or Alzheimer's disease brain sections” value is “little to no binding”. The “binding density to juvenile HD brain” value in assay [1] (juvenile HD sample (one case) vs adult-onset HD brains) is “highest binding density”. Moreover, the white matter binding in assay [1] (post-mortem human brain, white matter) is listed as at most 0.5 fmol/mg tissue. Further, the “binding to WT brain sections” value in assay [2] (WT mouse brain sections, only detectable above LLoQ (0.5 fmol/mg tissue) at 3 nM and 10 nM) is listed as “minor”. For the same molecule, in assay [2] (cortex, 12-month-old HOM zQ175), the “Bmax (concentration of specific binding sites)” value is given as 448.6 fmol/mg tissue. The molecule further registered a Bmax in assay [2] (cortex) of 448 fmol/mg.
